Here are results for 17 compounds from patent US4904593A (priority 1986, dated 1990).

Where two headings read alike, the source gives them in different places.

The subject of experiment [1] is purified esterase. The experiment can be described thus: Hydrolysis activity of the esterase to substrates, pH-stat (Example 6, Table 1). The class given is biochemical, Bacillus sp. DC-1. The conditions noted are these: 100 mM Tris-HCl pH 9.0, emulsified with 0.2% polyvinyl alcohol, ethyl butyrate = 100. The protocol: (§1) Also, the hydrolysis activities of the present esterase to choline ester, cholesterol ester, and thiol ester were determined.
(§2) In Table 1, the hydrolysis activity is expressed in relative activity (%) based on the hydrolysis activity of the present esterase to ethyl butyrate taken as 100. Each substrate was used after it was emulsified with 0.2% polyvinyl alcohol. In Table 2, hydrolysis activities to choline ester and cholesterol ester were observed by the use of the Cholinesterase B-test (Wako) and Free-Cholesterol B-test (Wako), respectively, and hydrolysis activity to thiol ester was based on increase in absorbance at 412 nm with a spectrophotometer in which glutathione, a standard substance, and 5,5'-dithiobis(2-nitrobenzoic acid) (DTNB) were employed. The activity is expressed in mole numbers of choline, cholesterol, and CoA to be liberated per minute.

Experiment [2] deals with purified esterase. The experiment can be described thus: Hydrolysis activity to thiol ester, DTNB absorbance at 412 nm (Table 2). In kind it is biochemical, Bacillus sp. DC-1. Conditions: for Activity: substrate 50 μM, CoA liberated per minute; for Substrate specificity (esterase active or not): summary of properties, thiol esters. How it is done:
as §1, §2

For experiment [3], the system named is purified esterase. The experiment can be described thus: Hydrolysis activity to cholesterol ester, Free-Cholesterol B-test (Table 2). In kind it is biochemical, Bacillus sp. DC-1. The conditions noted are these: substrate 1,300 μM; cholesterol liberated per minute. How it is done:
as §1, §2

Experiment [4] relates to purified esterase. The class given is biochemical, Bacillus sp. DC-1.
For experiment [5], the system named is esterase from Pseudomonas aeruginosa. Conditions: cited from earlier work.

For `CCCCCCCCCCCCCCCC(=O)OCC(CO)OC(=O)CCCCCCCCCCCCCCC` (centres unmarked) [1,2-dipalmitoyl glycerol], the “Relative activity (%)” value with purified esterase [1] (substrate 5 mM) was 0.2%.

On to `CCCCCCCCCCCCCCCC(=O)OCC(O)COC(=O)CCCCCCCCCCCCCCC` [1,3-dipalmitoyl glycerol], for which, in the experiment on purified esterase [1] (substrate 2 mM), the “Relative activity (%)” value was 0%.

`CCCCCCCCCCCCCCCC(=O)OCC(O)CO` (centres unmarked) [1-palmitoyl glycerol]: in the experiment with purified esterase [1] (substrate 5 mM), the “Relative activity (%)” value is reported as 3.0%.

In the case of `CC(=O)SCCNC(=O)CCNC(=O)[C@H](O)C(C)(C)COP(=O)(O)OP(=O)(O)OC[C@H]1O[C@@H](n2cnc3c(N)ncnc32)[C@H](O)[C@@H]1OP(=O)(O)O` [Acetyl CoA], in the experiment with purified esterase [2], the “Activity” value is 0 nmol/min and the “Substrate specificity (esterase active or not)” value is on record as “not”.

`CC(=O)O[C@H]1CC[C@@]2(C)C(=CC[C@H]3[C@@H]4CC[C@H]([C@H](C)CCCC(C)C)[C@@]4(C)CC[C@@H]32)C1` [Cholesterol acetate]: the “Activity” value in the experiment on purified esterase [3] amounted to 0 nmol/min.

Turning to `CCCCC/C=C\C/C=C\CCCCCCCC(=O)O[C@H]1CC[C@@]2(C)C(=CC[C@H]3[C@@H]4CC[C@H]([C@H](C)CCCC(C)C)[C@@]4(C)CC[C@@H]32)C1` [Cholesterol linolate], the “Activity” value in the experiment on purified esterase [3] stood at 0 nmol/min.

`CCCC(=O)OCC` [Ethyl butyrate]: in the experiment with purified esterase [1] (substrate 20 mM), the “Relative activity (%)” value turned out to be 100.0%.

Turning to `CCCCCCCCCCCCCCCC(=O)OC(C)C` [Isopropyl palmitate], in the experiment with purified esterase [1] (substrate 20 mM), the “Relative activity (%)” value came to 1.7%.

Take `O=S(=O)(F)Cc1ccccc1` [PMSF, phenylmethylsulfonylfluoride]: in the experiment on purified esterase [4], the “Inactivation of the esterase” value is reported as “Completely inactivated”. Also, in the experiment on purified esterase [4] (80 µM), the “Remaining activity(%)” value amounted to 1.5%.

Take `CCCCCCCCCCCCCCCC(=O)SCCNC(=O)CCNC(=O)[C@H](O)C(C)(C)COP(=O)(O)OP(=O)(O)OC[C@H]1O[C@@H](n2cnc3c(N)ncnc32)[C@H](O)[C@@H]1OP(=O)(O)O` [Palmitoyl CoA]: in the experiment with purified esterase [2], the “Activity” value was 5.4 nmol/min and the “Substrate specificity (esterase active or not)” value is reported as “Active”.

For `C[C@H](CCC(=O)O)[C@H]1CC[C@H]2[C@@H]3CC[C@@H]4C[C@H](O)CC[C@]4(C)[C@H]3C[C@H](O)[C@]12C` [Sodium deoxycholate], in the experiment on purified esterase [4], the “Remaining activity(%)” value is 76.2%. Moreover, the Decrease of activity entry with purified esterase [4] (purified esterase, pH 9, 10 min, 1000 µM) is listed as “about 25%”.

For `CCCCCCCCCCCCOS(=O)(=O)[O-].[Na+]` [Sodium lauryl sulfate], the “Remaining activity(%)” value with purified esterase [4] stood at 32.2%. The “Decrease of activity (inactivation)” value in the experiment on purified esterase [4] (purified esterase, pH 9, 10 min, 5000 µM) was “about 70%”. Also, the “Inactivation of the esterase from Pseudomonas aeruginosa” value in experiment [5] is “not inactivated”.

As for `CC(=O)OCC(COC(C)=O)OC(C)=O` [Triacetin], the “Relative activity (%)” value with purified esterase [1] (substrate 20 mM) stood at 14.1%.

With `CCCC(=O)OCC(COC(=O)CCC)OC(=O)CCC` [Tributylin], the “Relative activity (%)” value with purified esterase [1] (substrate 20 mM) came out at 56.6%.

In the case of `CCCCCCCCCCCCCCCC(=O)OCC(COC(=O)CCCCCCCCCCCCCCC)OC(=O)CCCCCCCCCCCCCCC` [Tripalmitin], the “Relative activity (%)” value in the experiment on purified esterase [1] (substrate 6 mM) amounted to 1.1%.

Turning to Tritonx-100, the “Remaining activity(%)” value in the experiment with purified esterase [4] is reported as 101.5%.

For the compound Tween-80, the “Remaining activity(%)” value in the experiment on purified esterase [4] was 130.8%.
